Data taken from the supplement of paper PMC10307832.

Columns and labels:
Assay in all cases: relative viability (nuclei count vs DMSO), 5 days (fraction); higher = more cells survive
[1] = compound: CC(=O)Nc1cccc(-n2c(=O)n(C3CC3)c(=O)c3c(Nc4ccc(I)cc4F)n(C)c(=O)c(C)c32)c1 [Trametinib] + O=C(CCCCCCC(=O)Nc1ccccc1)NO [Vorinostat] (partner 1 µM)
In short: (§1)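 Lung cancer cell lines were seeded in 1536-well plates and dosed by pin tool the next day, with either a single drug or a fixed anchor-drug dose combined with five library-drug doses (not always all listed) spaced in √10 steps. Five days later, one step fixed the cells and stained their nuclei (final 0.05% Triton X-100, 1% formaldehyde, 1 ug/ml Hoechst), and nuclei were counted on 4× images. Relative viability is the nuclei count in treated wells divided by the count in vehicle wells, and each value is the median of duplicate plates.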

[2] = compound: CC(=O)Nc1cccc(-n2c(=O)n(C3CC3)c(=O)c3c(Nc4ccc(I)cc4F)n(C)c(=O)c(C)c32)c1 [Trametinib] + N=C(N)NC(=N)NCCc1ccccc1 [Phenformin] (partner 250 µM)
In short: as §1

[3] = compound: CN1C=C(C2=CC=CC=C21)/C=C\3/C4=C(C=CC=N4)NC3=O + CC(=O)c1c(C)c2cnc(Nc3ccc(N4CCNCC4)cn3)nc2n(C2CCCC2)c1=O [Palbociclib] (partner 0.5 µM)
In short: as §1

[4] = compound: CN1C=C(C2=CC=CC=C21)/C=C\3/C4=C(C=CC=N4)NC3=O + Cc1nc(NC(=O)N2CCC[C@H]2C(N)=O)sc1-c1ccnc(C(C)(C)C(F)(F)F)c1 [Alpelisib] (partner 2 µM)
In short: as §1

Cell Line	relative viability ([1]; first compound 0.0025 µM)	relative viability ([1]; first compound 0.007906 µM)	relative viability ([1]; first compound 0.025 µM)	relative viability ([1]; first compound 0.07906 µM)	relative viability ([1]; first compound 0.25 µM)	relative viability ([2]; first compound 0.0025 µM)	relative viability ([2]; first compound 0.007906 µM)	relative viability ([2]; first compound 0.025 µM)	relative viability ([2]; first compound 0.07906 µM)	relative viability ([2]; first compound 0.25 µM)	relative viability ([3]; first compound 0.02 µM)	relative viability ([3]; first compound 0.06325 µM)	relative viability ([3]; first compound 0.6325 µM)	relative viability ([3]; first compound 2 µM)	relative viability ([4]; first compound 0.02 µM)	relative viability ([4]; first compound 0.06325 µM)	relative viability ([4]; first compound 0.2 µM)	relative viability ([4]; first compound 0.6325 µM)	relative viability ([4]; first compound 2 µM)	relative viability ([3]; first compound 0.2 µM)
HOP-62	0.648	0.467	0.277	0.301	0.106	0.692	0.643	0.441	0.331	0.209	0.438	0.415	0.449	0.483	0.821	0.843	0.957	0.926	1.07	
LC-2-ad	0.648	0.665	0.663	0.547	0.472	0.625	0.543	0.5	0.427	0.338	0.527	0.468	0.462	0.47	0.93	0.891	0.859	0.892	0.891	0.506
SW 900	0.44	0.545	0.439	0.456	0.138	0.579	0.532	0.457	0.487	0.143	0.428		0.542	0.563						
NCI-H322M	0.797	0.691	0.62	0.557	0.555	0.679	0.577	0.525	0.501	0.43	0.451	0.458	0.498	0.5	0.839	0.725	0.773	0.753	0.708	0.487
SK-LU-1	0.753	0.748	0.657	0.52	0.381	0.482	0.501	0.288	0.246	0.164	0.282	0.367	0.342	0.399	0.879	0.671	0.956	0.94	1.17	0.369
NCI-H1734	0.812	0.802		0.747	0.356	0.289	0.292	0.217	0.245	0.206	0.316	0.372	0.334	0.345	0.706	0.663		0.675	0.662	
HCC-44	1.08	1.06	1.09	0.909	0.808	0.249	0.181	0.187	0.0805	0.0783	0.902	0.959	0.934	0.913	0.737	0.74	0.722	0.564	0.705	0.956
NCI-H1703															0.436	0.299	0.324	0.41	0.268	
NCI-H2170	0.821	0.723		0.73	0.803	0.351	0.414	0.399	0.357	0.333	0.293	0.408	0.392	0.434		0.794	0.757	0.617	0.649	0.349
NCI-H1395	0.78	0.627	0.593	0.415	0.384	0.479	0.445	0.432	0.416	0.328	0.567	0.534	0.618	0.581	1.11	1.08		1.3	0.928	0.581
NCI-H1355	0.605	0.524	0.341	0.377	0.291	0.394	0.415	0.322	0.382	0.308	0.303	0.369	0.476	0.517	0.663	0.66	0.739	0.468	0.547	0.387
NCI-H1650	0.502	0.625	0.572	0.45	0.288	0.388	0.538	0.495	0.325	0.151	0.299	0.274	0.299	0.353						0.267
IA-LM	0.744	0.604	0.255	0.125	0.12										0.972	0.549	0.906	0.736	0.681	
NCI-H1666	0.989	0.946	0.871	0.861	0.713	0.526	0.574	0.6	0.57	0.513	0.604	0.62	0.574	0.632	0.94	0.814	0.805	0.915	0.616	0.634
HCC-78	0.447	0.377	0.382	0.433	0.414	0.678	0.501	0.482	0.489	0.401	0.356	0.426	0.48	0.437	0.289	0.509	0.304	0.282	0.287	0.364
H3255	0.903	0.799	0.509	0.709	0.905	0.346	0.368	0.342	0.297	0.263	0.33	0.327	0.317	0.296	0.705	0.722	0.642	0.757	0.855	0.309
NCI-H23	0.501	0.537	0.277	0.323	0.126	0.782	0.738	0.312	0.583	0.303	0.506	0.408	0.499	0.486	0.628	0.522		0.602	0.689	0.417
NCI-H1944	0.556	0.387	0.382	0.348	0.28	0.187	0.159	0.152	0.148	0.137	0.28	0.351	0.267	0.314	0.721	0.789		0.833	0.748	
NCI-H1651	0.546	0.546	0.466	0.505	0.505	0.26	0.293	0.296	0.288	0.182	0.563	0.492	0.5	0.542	0.916	0.947	1.06	0.998	0.921	0.554
EBC-1															0.727	0.776	0.894	0.823	0.784	

Cell Line	relative viability ([1]; first compound 0.0025 µM)	relative viability ([1]; first compound 0.007906 µM)	relative viability ([1]; first compound 0.025 µM)	relative viability ([1]; first compound 0.07906 µM)	relative viability ([1]; first compound 0.25 µM)	relative viability ([2]; first compound 0.0025 µM)	relative viability ([2]; first compound 0.007906 µM)	relative viability ([2]; first compound 0.025 µM)	relative viability ([2]; first compound 0.07906 µM)	relative viability ([2]; first compound 0.25 µM)	relative viability ([3]; first compound 0.02 µM)	relative viability ([3]; first compound 0.06325 µM)	relative viability ([3]; first compound 0.6325 µM)	relative viability ([3]; first compound 2 µM)	relative viability ([4]; first compound 0.02 µM)	relative viability ([4]; first compound 0.06325 µM)	relative viability ([4]; first compound 0.2 µM)	relative viability ([4]; first compound 0.6325 µM)	relative viability ([4]; first compound 2 µM)	relative viability ([3]; first compound 0.2 µM)
COR-L 105	0.715	0.747	0.52	0.484	0.379	0.421	0.354	0.293	0.277	0.213	0.428	0.418	0.373	0.497	0.907	0.898	0.922	1.01	0.874	0.419
RERF-LC-KJ	0.549	0.621	0.6	0.569	0.472	0.371	0.391	0.382	0.371	0.321	0.937	1.07	0.963	1.12	0.904	0.848	0.748	0.811	0.736	0.988
NCI-H1793	0.579	0.432	0.317	0.317	0.221	0.329	0.314	0.283	0.176	0.219	0.322	0.39	0.275	0.296	0.979	1.02	0.654	0.668	0.675	0.285
CAL-12T	0.728	0.637	0.394	0.41	0.265	0.457	0.376	0.295	0.267	0.229	0.501	0.411	0.419	0.499	1.47	0.924	1.1	1.16	1.06	0.411
NCI-H1993	0.681	0.553	0.339	0.576	0.304	0.538	0.536	0.558	0.554	0.56	0.606	0.594	0.455	1.19	0.631	0.653	0.678	0.736	0.698	0.656
LXF-289	0.711	0.587	0.538	0.529	0.55	0.503	0.451	0.444	0.422	0.263	0.589	0.593	0.656	0.775	1.09	1.06	1.12	1.02	1.1	0.626
NCI-H1792						0.309	0.206	0.071	0.157	0.0553	0.624	0.679		0.559	0.536	0.723	0.608		0.581	0.656
LU99A	0.546	0.503	0.291	0.397	0.254	0.895	0.812	0.642	0.588	0.455	0.374	0.417	0.381	0.432	0.479	0.487	0.555	0.5	0.504	0.393
SW 1573	0.755	0.663	0.437	0.491	0.278	0.29	0.279	0.255	0.156	0.15	0.319	0.391	0.424	0.485	0.742	0.644	0.782	0.803	0.814	0.426
COR-L23	0.463	0.465	0.529	0.421	0.312	0.479	0.437	0.384	0.388	0.269	0.314	0.292	0.237	0.299	0.764	0.698	0.718	0.724	0.589	0.28
A549						0.166	0.153	0.125	0.116	0.058					0.863	0.736	0.843	0.808	0.691	
ChaGo-K-1	0.659	0.623	0.685	0.731	0.418	0.413	0.444	0.492	0.414	0.317	0.922	0.936	0.89	0.909						0.853
NCI-H2342	0.727	0.793	0.488	0.685	0.68	0.49	0.549		0.403	0.56	0.552	0.557	0.537	0.485						0.519
NCI-H1648	0.422	0.479	0.488	0.3	0.376						0.308	0.305	0.285	0.28						0.233
NCI-H1563						0.637	0.636	0.676	0.597	0.59					0.898	0.951	0.73	0.977	0.863	
NCI-H522	0.823	0.798	0.836	0.763	0.671	0.575	0.657	0.506	0.574	0.434	1.04	1.01	0.874	1.06						1.08
NCI-H1623						0.588	0.48	0.291	0.396	0.634										
NCI-H596	0.6	0.555	0.436	0.427	0.263	0.713	0.704	0.485	0.622	0.411					0.545	0.413	0.529	0.49	0.493	
NCI-H1299															1.06	1.14	1.14	1.1	1.06	
Calu-6															0.823	0.856	0.959	0.975	0.911	
